Results from patent publication US12421210B2, “Fused bicyclic heterocycles as therapeutic agents” (NEW YORK UNIVERSITY, priority 2018, dated 2025).
Read-outs that look alike come from different tables or passages of the source.

Biological target: human NAMPT enzyme (His-hNAMPT) (Homo sapiens (Human), UniProt P43490)
Test: NAMPT enzymatic inhibition assay (fluorescence, NADH product)
Assay type: biochemical
[1] = [BPS], read-out: NAMPT IC50 (μM) [BPS]
[2] = [HDB], read-out: NAMPT IC50 (μM) [HDB]

Chain of human NAMPT enzyme (His-hNAMPT) (P43490 whole entry): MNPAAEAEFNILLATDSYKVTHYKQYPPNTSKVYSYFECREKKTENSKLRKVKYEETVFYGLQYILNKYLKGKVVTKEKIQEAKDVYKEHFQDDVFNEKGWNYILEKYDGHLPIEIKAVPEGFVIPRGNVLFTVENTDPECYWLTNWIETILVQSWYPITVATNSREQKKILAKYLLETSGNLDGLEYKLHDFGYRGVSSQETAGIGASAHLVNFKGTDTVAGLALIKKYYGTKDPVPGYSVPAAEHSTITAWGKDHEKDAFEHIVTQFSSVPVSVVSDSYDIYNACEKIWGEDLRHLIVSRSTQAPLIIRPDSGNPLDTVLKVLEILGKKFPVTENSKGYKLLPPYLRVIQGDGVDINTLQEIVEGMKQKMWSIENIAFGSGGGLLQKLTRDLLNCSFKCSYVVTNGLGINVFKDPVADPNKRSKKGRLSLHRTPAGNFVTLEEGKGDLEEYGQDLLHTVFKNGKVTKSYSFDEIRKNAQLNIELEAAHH

IC50 [1] [µM] | IC50 [2] [µM] | SMILES
0.01 to 0.49 |  | O=C(NCC[C@@H]1[C@H]2CN(c3ncccn3)C[C@@H]12)c1cc(-c2cccnc2)on1 [Example 131, 5-(pyridin-3-yl)-N-(2-((1R,5S,6s)-3-(pyrimidin-2-yl)-3-azabicyclo[3.1.0]hexan-6-yl)ethyl)isoxazole-3-carboxamide]
 | 0.01 to 0.49 | Nc1ccc(/C=C/C(=O)NCC[C@@H]2[C@H]3CN(c4nc(Cl)ncc4F)C[C@@H]23)cn1 [Example 206, (E)-3-(6-aminopyridin-3-yl)-N-(2-((1R,5S,6s)-3-(2-chloro-5-fluoropyrimidin-4-yl)-3-azabicyclo[3.1.0]hexan-6-yl)ethyl)acrylamide]
 | 0.01 to 0.49 | Nc1ccc(/C=C/C(=O)NCC[C@@H]2[C@H]3CN(c4cccc(C(F)(F)F)c4)C(=O)[C@@H]23)cn1 (racemic) [Example 263, (E)-3-(6-aminopyridin-3-yl)-N-(2-((1R,5S,6S)-2-oxo-3-(3-(trifluoromethyl)phenyl)-3-azabicyclo[3.1.0]hexan-6-yl)ethyl)acrylamide and (E)-3-(6-aminopyridin-3-yl)-N-(2-((1S,5R,6R)-2-oxo-3-(3-(trifluoromethyl)phenyl)-3-azabicyclo[3.1.0]hexan-6-yl)ethyl)acrylamide]
 | 0.01 to 0.49 | O=C(/C=C/c1cccnc1)NCC[C@@H]1[C@H]2CN(Cc3ccc(F)cc3)C[C@@H]12 [Example 247, (E)-N-(2-((1R,5S,6s)-3-(4-fluorobenzyl)-3-azabicyclo[3.1.0]hexan-6-yl)ethyl)-3-(pyridin-3-yl)acrylamide]
0.01 to 0.49 |  | CC1(OC(=O)N2C[C@@H]3[C@@H](CCNC(=O)c4cc5ccncc5s4)[C@@H]3C2)COC1 [Example 26, (1R,5S,6s)-3-methyloxetan-3-yl 6-(2-(thieno[2,3-c]pyridine-2-carboxamido)ethyl)-3-azabicyclo[3.1.0]hexane-3-carboxylate]
0.01 to 0.49 |  | Nc1ccc(/C=C/C(=O)NCC[C@@H]2[C@H]3CN(C(=O)N4CCOCC4)C[C@@H]23)cn1 [Example 29, (E)-3-(6-aminopyridin-3-yl)-N-(2-((1R,5S,6s)-3-(morpholine-4-carbonyl)-3-azabicyclo[3.1.0]hexan-6-yl)ethyl)acrylamide]
 | 1 to 29 | O=C(CCc1ccncc1)NCC[C@@H]1[C@H]2CN(c3nc(Cl)ncc3F)C[C@@H]12 [Example 215, N-(2-((1R,5S,6s)-3-(2-chloro-5-fluoropyrimidin-4-yl)-3-azabicyclo[3.1.0]hexan-6-yl)ethyl)-3-(pyridin-4-yl)propanamide]
 | 0.01 to 0.49 | O=C(/C=C/c1cccnc1)NCC[C@@H]1[C@H]2CN(c3cccc(Cl)c3)C[C@@H]12 [Example 145, (E)-N-(2-((1R,5S,6s)-3-(3-chlorophenyl)-3-azabicyclo[3.1.0]hexan-6-yl)ethyl)-3-(pyridin-3-yl)acrylamide]
 | 0.01 to 0.49 | O=C(/C=C/c1cccnc1)NCC[C@@H]1[C@H]2CN(c3ncc(Cl)cn3)C[C@@H]12 [Example 164, (E)-N-(2-((1R,5S,6s)-3-(5-chloropyrimidin-2-yl)-3-azabicyclo[3.1.0]hexan-6-yl)ethyl)-3-(pyridin-3-yl)acrylamide]
 | 0.01 to 0.49 | O=C(/C=C/c1cccnc1)NCC[C@@H]1[C@H]2CN(c3ccccn3)C[C@@H]12 [Example 176, (E)-N-(2-((1R,5S,6s)-3-(pyridin-2-yl)-3-azabicyclo[3.1.0]hexan-6-yl)ethyl)-3-(pyridin-3-yl)acrylamide]
0.01 to 0.49 |  | Nc1ccc(/C=C/C(=O)NCC[C@@H]2[C@H]3CN(c4ccccc4)C(=O)[C@@H]23)cn1 (racemic) [Example 259, (E)-3-(6-aminopyridin-3-yl)-N-(2-((1S,5R,6R)-2-oxo-3-phenyl-3-azabicyclo[3.1.0]hexan-6-yl)ethyl)acrylamide and (E)-3-(6-aminopyridin-3-yl)-N-(2-((1R,5S,6S)-2-oxo-3-phenyl-3-azabicyclo[3.1.0]hexan-6-yl)ethyl)acrylamide]
0.01 to 0.49 |  | CC(C)(C)OC(=O)N1C[C@H]2C[C@@H](CCNC(=O)/C=C/c3cccnc3)C[C@H]2C1 [Example 274, (3aR,5r,6aS)-tert-butyl 5-(2-((E)-3-(pyridin-3 yl)acrylamido)ethyl)hexahydrocyclopenta[c]pyrrole-2(1H)-carboxylate]
 | 0.01 to 0.49 | O=C(/C=C/c1cccnc1)NCC[C@@H]1[C@H]2CN(c3ccc(C(F)(F)F)cc3)C[C@@H]12 [Example 139, (E)-3-(pyridin-3-yl)-N-(2-((1R,5S,6s)-3-(4-(trifluoromethyl)phenyl)-3-azabicyclo[3.1.0]hexan-6-yl)ethyl)acrylamide]
0.01 to 0.49 |  | CC(C)(C)OC(=O)N1C[C@@H]2[C@@H](CCNC(=O)N3CCc4sccc4C3)[C@@H]2C1 [Example 16, (1R,5S,6s)-tert-butyl 6-(2-(4,5,6,7-tetrahydrothioeno[3,2-c]pyridine-5-carboxamido)ethyl)-3-azabicyclo[3.1.0]hexane-3-carboxylate]
0.01 to 0.49 |  | CN1CCC(c2ccc(C(=O)N3C[C@@H]4[C@@H](CCNC(=O)/C=C/c5ccc(N)nc5)[C@@H]4C3)cc2)CC1 [Example 93, (E)-3-(6-aminopyridin-3-yl)-N-(2-((1R,5S,6s)-3-(4-(1-methylpiperidin-4-yl)benzoyl)-3-azabicyclo[3.1.0]hexan-6-yl)ethyl)acrylamide]
1 to 29 |  | CC1(OC(=O)N2C[C@@H]3[C@@H](CCNC(=O)c4ccc5nc(N)sc5c4)[C@@H]3C2)COC1 [Example 49, (1R,5S,6s)-3-methyloxetan-3-yl 6-(2-(2-aminobenzo[d]thiazole-6-carboxamido)ethyl)-3-azabicyclo[3.1.0]hexane-3-carboxylate]
 | 0.01 to 0.49 | Nc1ccc(/C=C/C(=O)NCC[C@@]2(F)[C@@H]3CN(c4ncccn4)C[C@@H]32)cn1 [Example 290, (E)-3-(6-aminopyridin-3-yl)-N-(2-((1R,5S,6r)-6-fluoro-3-(pyrimidin-2-yl)-3-azabicyclo[3.1.0]hexan-6-yl)ethyl)acrylamide]
0.01 to 0.49 |  | O=C(NCC[C@@H]1[C@H]2CN(C(=O)CC3CCOCC3)C[C@@H]12)c1ccc2nccn2c1 [Example 101, N-(2-((1R,5S,6s)-3-(2-(tetrahydro-2H-pyran-4-yl)acetyl)-3-azabicyclo[3.1.0]hexan-6-yl)ethyl)imidazo[1,2-a]pyridine-6-carboxamide]
 | < 0.01 | O=C(NCC[C@@H]1[C@H]2CN(c3ccccc3)C[C@@H]12)c1cc2ccncc2o1 [Example 193, N-(2-((1R,5S,6s)-3-phenyl-3-azabicyclo[3.1.0]hexan-6-yl)ethyl)furo[2,3-c]pyridine-2-carboxamide]
 | < 0.01 | CCN(CC)C(=O)C(c1ccccc1)N1C[C@@H]2[C@@H](CCNC(=O)/C=C/c3cccnc3)[C@@H]2C1 (stereo partly drawn) [Example 318, (E)-N-(2-((1R,5S,6s)-3-(2-(diethylamino)-2-oxo-1-phenylethyl)-3-azabicyclo[3.1.0]hexan-6-yl)ethyl)-3-(pyridin-3-yl)acrylamide]
 | < 0.01 | CNC(=O)C(c1ccccc1)N1C[C@@H]2[C@@H](CCNC(=O)/C=C/c3cccnc3)[C@@H]2C1 (stereo partly drawn) [Example 317, (E)-N-(2-((1R,5S,6s)-3-(2-(methylamino)-2-oxo-1-phenylethyl)-3-azabicyclo[3.1.0]hexan-6-yl)ethyl)-3-(pyridin-3-yl)acrylamide]
 | 0.01 to 0.49 | CC(=O)Nc1cccc(N2C[C@@H]3[C@@H](CCNC(=O)/C=C/c4cccnc4)[C@@H]3C2)c1 [Example 184, (E)-N-(2-((1R,5S,6s)-3-(3-acetamidophenyl)-3-azabicyclo[3.1.0]hexan-6-yl)ethyl)-3-(pyridin-3-yl)acrylamide]
0.01 to 0.49 |  | Nc1ccc(/C=C/C(=O)NCC[C@@H]2[C@H]3CN(C(=O)NC4CCOCC4)C[C@@H]23)cn1 [Example 32, (1R,5S,6s)-6-(2-((E)-3-(6-aminopyridin-3-yl)acrylamido)ethyl)-N-(tetrahydro-2H-pyran-4-yl)-3-azabicyclo[3.1.0]hexane-3-carboxamide]
 | 0.01 to 0.49 | O=C(/C=C/c1cccnc1)NCC[C@@H]1[C@H]2CN(Cc3ccccc3Cl)C[C@@H]12 [Example 300, (E)-N-(2-((1R,5S,6s)-3-(2-chlorobenzyl)-3-azabicyclo[3.1.0]hexan-6-yl)ethyl)-3-(pyridin-3-yl)acrylamide]
0.01 to 0.49 |  | O=C(/C=C/c1cccnc1)NCC[C@@H]1[C@H]2CN(c3cccc4ccccc34)C[C@@H]12 [Example 126, (E)-N-(2-((1R,5S,6s)-3-(naphthalen-1-yl)-3-azabicyclo[3.1.0]hexan-6-yl)ethyl)-3-(pyridin-3-yl)acrylamide]
 | 0.01 to 0.49 | CP(C)(=O)c1cccc(N2C[C@@H]3[C@@H](CCNC(=O)/C=C/c4cccnc4)[C@@H]3C2)c1 [Example 288, (E)-N-(2-((1R,5S,6s)-3-(3-(dimethylphosphoryl)phenyl)-3-azabicyclo[3.1.0]hexan-6-yl)ethyl)-3-(pyridin-3-yl)acrylamide]
0.01 to 0.49 |  | O=C(NCC[C@@H]1[C@H]2CN(c3ncccn3)C[C@@H]12)c1cc2ccncc2o1 [Example 119, N-(2-((1R,5S,6s)-3-(pyrimidin-2-yl)-3-azabicyclo[3.1.0]hexan-6-yl)ethyl)furo[2,3-c]pyridine-2-carboxamide]
0.01 to 0.49 |  | CC1(OC(=O)N2C[C@@H]3[C@@H](CCNC(=O)C4C[C@@H]4c4cccnc4)[C@@H]3C2)COC1 (mixture of isomers) [Example 53, (1R,5S,6s)-3-methyloxetan-3-yl 6-(2-((1S,2S)-2-(pyridin-3-yl)cyclopropanecarboxamido)ethyl)-3-azabicyclo[3.1.0]hexane-3-carboxylate and (1R,5S,6s)-3-methyloxetan-3-yl 6-(2-((1R,2R)-2-(pyridin-3-yl)cyclopropanecarboxamido)ethyl)-3-azabicyclo[3.1.0]hexane-3-carboxylate]
1 to 29 |  | CC1(OC(=O)N2C[C@@H]3[C@@H](CCNC(=O)/C=C/c4cnc(N)nc4)[C@@H]3C2)COC1 [Example 54, (1R,5S,6s)-3-methyloxetan-3-yl 6-(2-((E)-3-(2-aminopyrimidin-5-yl)acrylamido)ethyl)-3-azabicyclo[3.1.0]hexane-3-carboxylate]

SMILES | IC50 [1] [µM] | IC50 [2] [µM]
COc1ncc(F)c(N2C[C@@H]3[C@@H](CCNC(=O)/C=C/c4ccc(F)nc4)[C@@H]3C2)n1 [Example 313, (E)-N-(2-((1R,5S,6s)-3-(5-fluoro-2-methoxypyrimidin-4-yl)-3-azabicyclo[3.1.0]hexan-6-yl)ethyl)-3-(6-fluoropyridin-3-yl)acrylamide] |  | < 0.01
